Laboratory results reported in patent publication US20210236528A1, “COMPOSITION COMPRISING ISOMERS OF INOSITOL AND ITS USE” (SOCIETE DES PRODUITS NESTLE S.A., priority 2019, published 2021).

Assays:
[1] = Plasma inositol isomers levels by glucose tolerance status (UHPLC-MSMS), withdrawn women from study 2; type: in vivo, human; conditions: endogenous level; for Plasma inositol isomers levels, Mean: no administration; for plasma concentration in subjects with impaired glucose tolerance or type II diabetes in comparison to normal glucose tolerance / average plasma concentration in Asian subjects in comparison to Caucasian subjects: result in words; for average plasma concentration in Asian subjects in comparison to Caucasian subjects: subjects not having prediabetes or type II diabetes
Method: (§1) Only withdrawn women from this study 2 were included in this sub-study. Women were from UK (N=46), NZ (N=89), SG (N=117). All the data (anthropometric and biochemical parameters) were collected and measured. Plasma and urine inositol isomers were measured using a new validated UHPLC-MSMS method. Study 2 was approved by different Institutional Review Boards and the study design published (Godfrey K M et al, Trials. 2017 Mar. 20; 18(1):131.). Subjects were classified as normoglycemic (NGT), impaired glucose tolerance (IGT), and type 2 diabetic mellitus (T2DM) based upon the results of fasting glucose and the oral glucose tolerance test (OGTT). Subjects with 2-hours glucose were levels <7.8 mmol/L were considered as normal glucose tolerant (NGT), while those with 2-hour glucose between 7.8-11.1 mmol/L were deemed as having impaired glucose tolerance (IGT). Individuals with fasting plasma glucose (IFG) level 5.6 mmol/L) were classified as having impaired fasting glucose. Both IFG and IGT subjects were grouped together. Subjects with 2-hours glucose >11.1 mmol/L were considered as having type 2 diabetic mellitus (T2DM). NGT group was further divided into 2 sub-groups named NGT with a “favorable” metabolic risk profile (abbreviated NGT_fav) and NGT with an “unfavorable” metabolic risk profile (abbreviated NGT_Unfav) to take into account the hyperinsulinemia affecting subjects in the NGT group. Inclusion criteria for NGT subjects with a favorable risk profile (NGT_fav) were the following ones: BMI<25 for Caucasian and <23 for Asian subjects; waist <80 cm; waist/hip ratio […]; HOMA2-IR<1.21. IGT/IFG and T2DM subjects were also grouped together into a dysglycemic group. In total, […] were reported: NGT_all; NGT_fav; NGT_unfav; IGT/IFG and; T2DM.
(§2) Blood samples were collected into EDTA-containing tubes and spot urine samples were collected and frozen at −80° C. until analysis. For inositol isomers determination, analysis was performed on an Accela UHPLC (Thermo Fisher Scientific Inc., Waltham, Mass., USA) coupled to a TSQ Vantage triple quadrupole (Thermo Fisher Scientific Inc., Waltham, Mass., USA) equipped with a heated electrospray ionization (HESI) source in negative mode. Chromatographic separation was achieved using gradient elution on an UHPLC Acquity BEH Amide (1.7 μm, 2.1 mm×150 mm) column and guard column (Vanguard BEH Amide 1.7 μm, 2.1 mm×10 mm; Waters Corporation, Milford, Mass., USA) at 30° C. at a flow rate of 400 μL/min. Mobile phase consisted of 90% acetonitrile-NH4OH 0.04% (eluent A) and 50% acetonitrile-NH4OH 0.04% (eluent B). Column temperature was kept at 30° C. The injection volumes were 3 μL and 5 μL for urine and plasma respectively. Plasma samples were thawed and briefly vortexed before transferring 100 μL of the sample into a 1.5 mL microtube. 50 μL of [2H6]-myo-inositol, then 500 μL of ACN containing 1% of formic acid were added for protein precipitation. The tubes were vortexed for 1 min and centrifuged at 10,000×g for 3 min. Supernatants were transferred into an SPE Ostro 96 well plate for phospholipid removal. Positive pressure (about 8 psi) was applied for elution and the filtrates were then evaporate to dryness in a vacuum centrifuge (45° C., 5 mbar, 6 h). Dry residues were dissolved in 400 μL of water and transferred into a 0.45 μm centrifugal filter containing 175 mg of mixed bed ion exchange resin Amberlite MB-3. Tubes were spun at 3000×g for 2 min then the filtrates were evaporated to dryness in vacuum centrifuge at 45° C., 5 mbar for 2 h. Finally, residues were reconstituted in vials with 80 μL of ACN/water (60/40) and injected for analysis.
Statistical analysis was performed using R software (version 3.2.3). Mean and standard deviation were calculated. The statistical model used as covariate the glucose tolerance status, the ethnicity, the menstrual cycle, the age of the subjects and the BMI. For some statistical analysis some raw data were log transformed in view of their distribution. […]

[2] = Urinary inositol isomers excretion by glucose tolerance status (UHPLC-MSMS), withdrawn women from study 2; type: in vivo, human; conditions: endogenous, spot urine
Method: as §1, §2
Urine samples were thawed and briefly vortexed before transferring 150 μL of sample into a 1.5-mL microtube. 100 μL of [2H6]-myo-inositol was added and the mixture was transferred into a 0.45 μm centrifugal filter containing 175 mg of mixed bed ion exchange resin Amberlite MB-3. […]

| SMILES | Plasma inositol isomers levels, Mean ([1]; IGT/IFG group, N=41 women) [µmol/L] | Plasma inositol isomers levels, Mean ([1]; NGT (all) group, N=182 women) [µmol/L] | Plasma inositol isomers levels, Mean ([1]; NGT_Fav group, N=63 women) [µmol/L] | Plasma inositol isomers levels, Mean ([1]; NGT_Unfav group, N=119 women) [µmol/L] | Plasma inositol isomers levels, Mean ([1]; T2DM group, N=26 women) [µmol/L] | Urinary inositol isomers excretion, Mean ([2]; IGT/IFG group) | Urinary inositol isomers excretion, Mean ([2]; NGT (all) group) | Urinary inositol isomers excretion, Mean ([2]; NGT_Fav group) | Urinary inositol isomers excretion, Mean ([2]; NGT_Unfav group) | Urinary inositol isomers excretion, Mean ([2]; T2DM group) | plasma concentration in subjects with impaired glucose tolerance or type II diabetes in comparison to normal glucose tolerance [1] | average plasma concentration in Asian subjects in comparison to Caucasian subjects [1] |
| --- | --- | --- | --- | --- | --- | --- | --- | --- | --- | --- | --- | --- |
| OC1C(O)C(O)C(O)C(O)C1O (stereo not shown) [Chiro-inositol] | 0.32 | 0.23 | 0.26 | 0.22 | 0.22 | 0.20 μmol/mmol of creatinine | 0.24 μmol/mmol of creatinine | 0.26 μmol/mmol of creatinine | 0.22 μmol/mmol of creatinine | 0.42 μmol/mmol of creatinine |  |  |
| O[C@H]1[C@H](O)[C@@H](O)[C@H](O)[C@@H](O)[C@H]1O [Myo-inositol, cis-1,2,3,5-trans-4,6cyclohexanehexol] | 23.23 | 25.91 | 25.44 | 26.16 | 24.66 | 6.35 μmol/mmol of creatinine | 9.21 μmol/mmol of creatinine | 10.86 μmol/mmol of creatinine | 8.33 μmol/mmol of creatinine | 17.97 μmol/mmol of creatinine | lower | lower |
| O[C@H]1[C@H](O)[C@@H](O)[C@H](O)[C@@H](O)[C@@H]1O [Scyllo-inositol, (1r,2r,3r,4r,5r,6r)-Cyclohexane-1,2,3,4,5,6-hexol] | 0.46 | 0.67 | 0.72 | 0.64 | 0.37 | 3.31 μmol/mmol of creatinine | 5.04 μmol/mmol of creatinine | 6.34 μmol/mmol of creatinine | 4.34 μmol/mmol of creatinine | 3.36 μmol/mmol of creatinine | lower | lower |
